Experiment [1] is filed under the species Mus musculus. The experiment can be described thus: The compound was evaluated for the percentage of pentagastrin control in the isolated mouse stomach assay. The class given is functional.
The species named for experiment [2] is Mus musculus. The experiment can be described thus: Evaluated for the Log A50 value in the isolated mouse stomach assay. The class given is functional.

Structures are written as SMILES.

In turn, `NC(=O)C(Cc1ccccc1)NC(=O)[C@@H]1CC(=O)OS(=O)(c2ccc3ccccc3c2)=N1` (stereo partly specified) had a Control in the experiment filed under Mus musculus [1] of 67%. In the experiment listed under Mus musculus [2], the “Log A50” value is listed as -8.1.
Turning to `Cc1ccc(S2(=O)=N[C@H](C(=O)NC(Cc3ccccc3)C(N)=O)CC(=O)O2)cc1` (stereo partly specified), the Control in the experiment listed under Mus musculus [1] was found to be 56%. Besides, the “Log A50” value in the experiment listed under Mus musculus [2] is listed as -5.3.
For `NC(=O)C(Cc1ccccc1)NC(=O)[C@H](CC(=O)O)NS(=O)(=O)c1ccc2ccccc2c1` (stereo partly specified), in that order: 96% and -5.6.

Values taken from ChEMBL document CHEMBL1126406, “Novel oxathiazinones as gastrin ligands : Unexpected preducts from the schotten-baumann reaction of arylsulphonyl chlorides with derivatives of aspartic acid” (1992).
